Test results: paper PMC8876135, “The Catestatin-Derived Peptides Are New Actors to Fight the Development of Oral Candidosis” (International Journal of Molecular Sciences, 2022)
≈ marks a conversion by molar mass, not a printed value. Residues, ends and D or L forms follow the SMILES beside them.

Columns and labels:
Candida albicans “R” = assay type: cell-based; conditions: 24 h, pH 5.6
Procedure: (§1) Strains of Candida albicans, Candida tropicalis and Candida glabrata, frequently found in cases of oral candidosis, were tested for L-bCtl and D-bCtl antimicrobial activity. The sensitive strain of C. albicans (ATCC 10231^TM) was provided by ATCC (Manassas, VA, USA). The resistant strain of C. albicans, the sensitive and resistant strains of C. tropicalis as well as the sensitive and resistant strains of C. glabrata were kindly provided by Dr Valérie Letscher-Bru (Laboratory of Parasitolology and Medical Mycology, Strasbourg, France).
(§2) Each Candida strain was first plated on agar plates and cultured for 24 h at 37 °C. After incubation, one colony per isolate was transferred into 5 mL of Sabouraud medium pH 5.6 (Sigma-Aldrich, Le Pont-de-Claix, France) supplemented with tetracycline (10 μg/mL) and cefotaxime (10 μg/mL) and incubated aerobically under agitation at 37 °C for 24 h. The resulting cultures were resuspended at an absorbance of 0.001 (OD600nm = 0.001) in Sabouraud medium. The OD600nm was evaluated with a spectrophotometer (BIO-RAD Smatspec^TM plus, Schiltigheim, France). In preliminary experiments, we tested RPMI-1640 culture and Sabouraud media. Similar data were obtained but the experiments were more reproducible with Sabouraud than with RPMI1640. Therefore, Sabouraud medium was used in the present study.
(§3) The yeasts (OD600nm = 0.001) were then plated on 96-well microplates and treated with different concentrations of the peptides of interest. After 24 h incubation at 37 °C under agitation, yeast growth was assessed by optical density (OD600nm) using a microplate spectrophotometer (Multiscan EX, Thermo Fisher Scientific, Waltham, MA, USA). All tests were performed in triplicate. The MIC (minimal inhibitory concentration), defined as the lowest concentration of drug able to inhibit 100% of the growth of a pathogen, was determined for the different peptides against all previously described Candida strains, using a modified Gompertz model.

Candida glabrata “R” = assay type: cell-based; conditions: 24 h, pH 5.6
Procedure: as §1, §2, §3

Candida glabrata “S” = assay type: cell-based; conditions: 24 h, pH 5.6
Procedure: as §1, §2, §3

Candida tropicalis “R” = assay type: cell-based; conditions: 24 h, pH 5.6
Procedure: as §1, §2, §3

Candida tropicalis “S” = assay type: cell-based; conditions: 24 h, pH 5.6
Procedure: as §1, §2, §3

[1] = cited from earlier work
Text: Host-defense peptides (HDPs) have emerged as new attractive candidates in the development of new antimicrobial agents. In addition, HDPs have been proven to be potent immune effectors via the orchestration of immune responses.

[2] = test system: Candida albicans “S” (ATCC 10231); assay type: cell-based; conditions: ATCC 10231, 24 h, pH 5.6
Procedure: as §1, §2, §3

C. albicans = conditions: 24 h, 4 µM
Procedure: as §2, with “Similar data were obtained but the experiments were more reproducible with Sabouraud than with RPMI1640.” left out
The yeasts (OD600nm = 0.001) were then plated on 96-well microplates and treated with different concentrations of the peptides of interest. After 24 h incubation at 37 °C under agitation, yeast growth was assessed by optical density (OD600nm) using a microplate spectrophotometer (Multiscan EX, Thermo Fisher Scientific, Waltham, MA, USA). All tests were performed in triplicate.
The same method was used to evaluate the MICs of peptide/bovine serum albumin combinations (BSA).

MIC C. albicans “R” (Candida albicans “R”) [µg/mL] | MIC Candida glabrata “R” (Candida glabrata “R”) [µg/mL] | MIC Candida glabrata “S” (Candida glabrata “S”) [µg/mL] | MIC Candida tropicalis “R” (Candida tropicalis “R”) [µg/mL] | MIC Candida tropicalis “S” (Candida tropicalis “S”) [µg/mL] | MIC C. albicans “S” [2] [µg/mL] | Compound | stability to bacterial degradation [1] | inhibition (C. albicans)
9.6 (≈ 5.16 µM) | 61.4 (≈ 33 µM) | 38.2 (≈ 20.5 µM) | 2.0 (≈ 1.08 µM) | 9.8 (≈ 5.27 µM) | – | CSCC[C@H](NC(=O)[C@H](CO)NC(=O)[C@@H](N)CCCNC(=N)N)C(=O)N[C@@H](CCCNC(=N)N)C(=O)N[C@@H](CC(C)C)C(=O)N[C@@H](CO)C(=O)N[C@@H](Cc1ccccc1)C(=O)N[C@@H](CCCNC(=N)N)C(=O)N[C@@H](C)C(=O)N[C@@H](CCCNC(=N)N)C(=O)NCC(=O)N[C@@H](Cc1ccc(O)cc1)C(=O)NCC(=O)N[C@@H](Cc1ccccc1)C(=O)N[C@@H](CCCNC(=N)N)C(=O)O [bCtl] (H-RSMRLSFRARGYGFR-OH) | resists bacterial degradation | –
50 (≈ 20.6 µM) | >100 | >100 | 20 (≈ 8.24 µM) | 50 (≈ 20.6 µM) | 30 (≈ 12.4 µM) | CSCC[C@H](NC(=O)[C@H](CO)NC(=O)[C@@H](N)CCCNC(=N)N)C(=O)N[C@@H](CCCNC(=N)N)C(=O)N[C@@H](CC(C)C)C(=O)N[C@@H](CO)C(=O)N[C@@H](Cc1ccccc1)C(=O)N[C@@H](CCCNC(=N)N)C(=O)N[C@@H](C)C(=O)N[C@@H](CCCNC(=N)N)C(=O)NCC(=O)N[C@@H](Cc1ccc(O)cc1)C(=O)NCC(=O)N[C@@H](Cc1ccccc1)C(=O)N[C@@H](CCCNC(=N)N)C(=O)NCC(=O)N1CCC[C@H]1C(=O)NCC(=O)N[C@@H](CC(C)C)C(=O)N[C@@H](CCC(N)=O)C(=O)N[C@@H](CC(C)C)C(=O)O [bCts] (H-RSMRLSFRARGYGFRGPGLQL-OH) | – | more than 90%
